# In publication PMC8129716 (CPT: Pharmacometrics & Systems Pharmacology, 2021):
# Experiments:
# P‐gp = P‐gp (Homo sapiens, UniProt P08183); assay: transporter substrate assessment; assay type: in vitro ADME
# Caco‐2 = assay: in vitro permeability study; assay type: in vitro ADME; conditions: experimental data adjusted to match Fa~0.7
# [1] = measured solubility at different pH levels; assay type: physicochemical
# OAT1 = target: T1, OAT1 (Homo sapiens, UniProt Q4U2R8); assay: transporter substrate/inhibitor assessment; assay type: in vitro ADME
# T1 sequence (Q4U2R8 1-563): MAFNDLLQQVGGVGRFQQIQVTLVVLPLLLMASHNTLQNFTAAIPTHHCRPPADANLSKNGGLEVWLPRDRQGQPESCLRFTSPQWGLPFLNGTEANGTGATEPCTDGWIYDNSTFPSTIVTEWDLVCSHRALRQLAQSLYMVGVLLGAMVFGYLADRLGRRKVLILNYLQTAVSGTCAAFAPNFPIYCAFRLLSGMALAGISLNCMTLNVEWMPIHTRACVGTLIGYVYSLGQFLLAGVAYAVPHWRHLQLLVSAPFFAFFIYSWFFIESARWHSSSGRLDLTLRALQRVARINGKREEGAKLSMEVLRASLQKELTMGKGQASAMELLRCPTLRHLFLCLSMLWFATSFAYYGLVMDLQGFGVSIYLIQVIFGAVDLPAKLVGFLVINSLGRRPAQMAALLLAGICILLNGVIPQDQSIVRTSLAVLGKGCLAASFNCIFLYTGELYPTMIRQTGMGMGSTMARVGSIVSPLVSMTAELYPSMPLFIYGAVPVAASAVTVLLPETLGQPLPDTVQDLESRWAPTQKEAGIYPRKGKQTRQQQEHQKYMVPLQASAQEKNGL
# CYP3A4 = CYP3A4 induction in human hepatocytes; assay type: in vitro ADME
# [2] = zanubrutinib PBPK model parameters; parameters: species or system human
# OAT3 = target: T2, OAT3 (Homo sapiens, UniProt Q8TCC7); assay: transporter substrate/inhibitor assessment; assay type: in vitro ADME
# T2 sequence (Q8TCC7 1-542): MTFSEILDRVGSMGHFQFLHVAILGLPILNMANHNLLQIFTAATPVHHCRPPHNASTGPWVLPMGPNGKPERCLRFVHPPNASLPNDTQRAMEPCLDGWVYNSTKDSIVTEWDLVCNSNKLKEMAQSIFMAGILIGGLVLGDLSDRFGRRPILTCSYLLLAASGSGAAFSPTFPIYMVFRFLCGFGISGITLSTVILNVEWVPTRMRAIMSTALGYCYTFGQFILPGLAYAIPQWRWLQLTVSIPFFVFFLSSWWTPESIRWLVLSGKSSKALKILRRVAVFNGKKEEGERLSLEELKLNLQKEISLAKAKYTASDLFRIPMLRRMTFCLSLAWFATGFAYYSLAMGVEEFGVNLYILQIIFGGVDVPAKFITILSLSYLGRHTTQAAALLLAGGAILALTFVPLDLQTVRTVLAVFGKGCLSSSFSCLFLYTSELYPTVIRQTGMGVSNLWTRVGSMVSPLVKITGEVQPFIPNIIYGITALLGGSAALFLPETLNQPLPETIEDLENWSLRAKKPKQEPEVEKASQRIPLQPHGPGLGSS
# [3] = population PK analysis; cited from earlier work
# [4] = fraction of unbound drug in plasma; assay type: in vitro ADME
# CYP2C19 = CYP2C19 induction in vitro; assay type: in vitro ADME, human
# P‐gp, sequence (P08183 whole entry): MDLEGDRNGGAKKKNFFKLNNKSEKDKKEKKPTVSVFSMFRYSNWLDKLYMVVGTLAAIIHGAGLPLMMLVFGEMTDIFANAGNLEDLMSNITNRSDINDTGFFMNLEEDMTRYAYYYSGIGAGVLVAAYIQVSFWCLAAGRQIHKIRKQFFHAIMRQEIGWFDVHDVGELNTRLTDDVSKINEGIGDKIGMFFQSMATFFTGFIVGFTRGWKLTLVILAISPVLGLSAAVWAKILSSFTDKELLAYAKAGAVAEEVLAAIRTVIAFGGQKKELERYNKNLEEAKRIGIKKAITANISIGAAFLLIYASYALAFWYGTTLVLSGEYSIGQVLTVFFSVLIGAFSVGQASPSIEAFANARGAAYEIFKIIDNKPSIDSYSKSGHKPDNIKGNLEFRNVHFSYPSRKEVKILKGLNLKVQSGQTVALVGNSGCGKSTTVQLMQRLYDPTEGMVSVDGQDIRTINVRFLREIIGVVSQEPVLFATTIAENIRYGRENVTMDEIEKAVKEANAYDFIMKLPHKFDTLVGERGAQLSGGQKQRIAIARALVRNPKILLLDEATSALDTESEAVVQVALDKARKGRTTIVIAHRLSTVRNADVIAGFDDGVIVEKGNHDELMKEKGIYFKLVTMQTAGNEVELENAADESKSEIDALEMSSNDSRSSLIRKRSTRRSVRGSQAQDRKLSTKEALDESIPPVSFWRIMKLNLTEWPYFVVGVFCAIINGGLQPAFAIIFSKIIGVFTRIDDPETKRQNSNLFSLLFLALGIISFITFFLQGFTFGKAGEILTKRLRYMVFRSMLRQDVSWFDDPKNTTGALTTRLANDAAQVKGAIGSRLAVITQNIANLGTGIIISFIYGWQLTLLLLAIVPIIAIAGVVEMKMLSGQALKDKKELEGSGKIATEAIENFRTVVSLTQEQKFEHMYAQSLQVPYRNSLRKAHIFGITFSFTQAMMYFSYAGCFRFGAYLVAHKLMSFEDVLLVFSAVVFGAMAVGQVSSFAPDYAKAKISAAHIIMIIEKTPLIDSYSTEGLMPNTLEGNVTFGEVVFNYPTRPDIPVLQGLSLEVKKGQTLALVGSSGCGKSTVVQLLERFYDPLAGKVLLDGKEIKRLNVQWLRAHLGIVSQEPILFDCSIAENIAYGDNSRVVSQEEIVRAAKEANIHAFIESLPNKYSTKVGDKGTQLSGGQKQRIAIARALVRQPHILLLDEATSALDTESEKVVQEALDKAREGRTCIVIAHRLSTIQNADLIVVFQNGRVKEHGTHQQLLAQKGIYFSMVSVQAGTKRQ
smiles,measurement,setting,value
"C=CC(=O)N1CCC([C@@H]2CCNc3c(C(N)=O)c(-c4ccc(Oc5ccccc5)cc4)nn32)CC1 [zanubrutinib, Zanubrutinib]",P-gp substrate,P‐gp,likely to be a substrate
same,"Peff,man",Caco‐2,0.9 10^−4 cm/s
same,solubility,[1]; pH 1.2,247 µg/mL
same,solubility,[1]; pH 4.5,73 µg/mL
same,solubility,[1]; pH 6.8,54 µg/mL
same,solubility,[1]; pH 7.4,52 µg/mL
same,substrate or inhibitor of OAT1,OAT1,not a substrate or inhibitor
same,increase of CYP3A4 activity,CYP3A4; 3 μM,6.27 fold
same,increase of CYP3A4 activity,CYP3A4; 30 μM,2.51 fold
same,Indmax CYP3A4,CYP3A4; Emax model on activity data,6.27 fold
same,EC50,"CYP3A4; human, hepatocytes",470 nM
same,R3 (CYP3A induction potential),"CYP3A4; per FDA DDI guidance, from in vitro data",0.23
same,Estimated renal contribution,[2],"Based on human absorption, metabolism, and excretion study (BGB−3111–105); Estimated renal contribution: 1.6% of total CL"
same,CL renal,"[2]; human, urine, oral, 320 mg",8.33 mL/min
same,substrate or inhibitor of OAT3,OAT3,not a substrate or inhibitor
same,AUC lower in patients compared with healthy volunteers,[3],43.7%
same,Cmax lower in patients compared with healthy volunteers,[3],26.8%
same,fraction unbound,[4],0.0582
